Values after ≈ are worked out from the molar mass of the structure shown. Where a name gives a salt, the structure may show the parent alone. Read-outs that look alike come from different tables or passages of the source.
Legend:
[1] = test system: Pseudomonas aeruginosa Tsuchijima; assay: In vitro antibacterial activity (MIC); format: cell-based; conditions: read-out: minimum inhibitory concentration (MIC)
Source text: (§1) In vitro antibacterial activity against 20 strains of bacteria
(§2) The numerals in the table show minimum inhibitory concentrations (MIC)

[2] = test system: Pseudomonas aeruginosa No.12; assay: In vitro antibacterial activity (MIC); format: cell-based
Source text: as §1, §2

[3] = test system: Enterobacter cloacae P-2540; assay: In vitro antibacterial activity (MIC); format: cell-based; conditions: P2540; Enterobacter cloacae P-2540; read-out: minimum inhibitory concentration (MIC)
Source text: as §1, §2

Proteus mirabilis P-2381 = assay: In vitro antibacterial activity (MIC); format: cell-based
Source text: as §1, §2

Escherichia coli P-5101 [4] = assay: In vitro antibacterial activity (MIC); format: cell-based
Source text: as §1, §2

[5] = test system: Shigella flexneri 4a P-330; assay: In vitro antibacterial activity (MIC); format: cell-based; conditions: 4AP330, read-out: minimum inhibitory concentration (MIC)
Source text: as §1, §2

Proteus morganii Kono = assay: In vitro antibacterial activity (MIC); format: cell-based; conditions: Morganella morganii, read-out: minimum inhibitory concentration (MIC)
Source text: as §1, §2

[6] = test system: Corynebacterium pyogenes C-21; assay: In vitro antibacterial activity (MIC); format: cell-based; conditions: Rhodococcus (subgen. Prescottella) equi, C21; Corynebacterium pyogenes C-21; read-out: minimum inhibitory concentration (MIC)
Source text: as §1, §2

[7] = test system: Klebsiella pneumoniae No. 13; assay: In vitro antibacterial activity (MIC); format: cell-based
Source text: as §1, §2

[8] = test system: Streptococcus faecalis P-2473; assay: In vitro antibacterial activity (MIC); format: cell-based; conditions: Enterococcus faecalis
Source text: as §1, §2

[9] = test system: Escherichia coli NIHJ JC-2; assay: In vitro antibacterial activity (MIC); format: cell-based
Source text: as §1, §2

[10] = test system: Salmonella typhimurium S-9; assay: In vitro antibacterial activity (MIC); format: cell-based; conditions: Salmonella enterica; Salmonella typhimurium S-9; read-out: minimum inhibitory concentration (MIC)
Source text: as §1, §2

[11] = test system: Serratia mercescens IFO 3736; assay: In vitro antibacterial activity (MIC); format: cell-based
Source text: as §1, §2

[12] = test system: Staphylococcus aureus No. 50774; assay: In vitro antibacterial activity (MIC); format: cell-based
Source text: as §1, §2

Proteus rettgeri P-2503 = assay: In vitro antibacterial activity (MIC); format: cell-based; conditions: Providencia rettgeri
Source text: as §1, §2

Escherichia coli P-140a = assay: In vitro antibacterial activity (MIC); format: cell-based
Source text: as §1, §2

[13] = test system: Staphylococcus aureus 209P JC-1; assay: In vitro antibacterial activity (MIC); format: cell-based; conditions: read-out: minimum inhibitory concentration (MIC)
Source text: as §1, §2

Shigella flexneri 2a = assay: In vitro antibacterial activity (MIC); format: cell-based; conditions: read-out: minimum inhibitory concentration (MIC)
Source text: as §1, §2

[14] = test system: Salmonella enteritidis No. 1891; assay: In vitro antibacterial activity (MIC); format: cell-based; conditions: Salmonella enterica; Salmonella enteritidis No. 1891; read-out: minimum inhibitory concentration (MIC)
Source text: as §1, §2

[15] = test system: Streptococcus pyogenes 65A; assay: In vitro antibacterial activity (MIC); format: cell-based; conditions: read-out: minimum inhibitory concentration (MIC)
Source text: as §1, §2

Escherichia coli P-5101 [16] = assay: In vivo efficacy against systemic infection; parameters: species or system male mice (ddY); conditions: P5101, in Mus musculus, 168 h, sc, twice, about 5 minutes and 6 hours after infection, read-out: ED50 (median effective dose)
Experimental: (§3) The contents in the vials (No. A and No. C) prepared in Example 17 were each dissolved in deionized water, and injections having various concentrations were prepared.
(§4) Compounds A, B, F, G, H and M were dissolved in deionized water.
(§5) Mice: male mice (ddY) weighting about 20g
(§6) Intraperitoneal infection with 50 to
(§7) of a bacterial suspension in tryptosoy
(§8) twice, about 5 minutes and 6 hours after
(§9) calculated in accordance with the Behrens-Kaerber method [Arch. Exp. Path

[17] = test system: Staphylococcus aureus No. 50774; assay: In vivo efficacy against systemic infection; parameters: species or system male mice (ddY); conditions: NO.50774, in Mus musculus, 336 h, sc, twice, about 5 minutes and 6 hours after infection, read-out: ED50 (median effective dose)
Experimental: as §3
Compounds A, B, F, G, H and M were dissolved in deionized water. Compounds C, D, E and J were dissolved in an aqueous solution of sodium carbonate (pH 8-9) to prepare injections of various concentrations.
Each of the injections was administered to mice under the conditions described below, and the median effective doses (ED50) obtained are shown in Table II.
as §5
Staphylococcus aureus No. 50774;
Intravenous infection with 50 to 100
LD50 (about 5 × 10^8cells/mouse) of a
bacterial suspension in saline.
as §8
Staphylococcus aureus No. 50774 14 days
The numerals in the table show ED50 (mg/kg). ED50 values were
as §9

in vivo = conditions: mouse
[18] = test system: Pseudomonas aeruginosa No. 12; assay: In vivo efficacy against systemic infection; parameters: species or system male mice (ddY); conditions: NO.12, in Mus musculus, sc, twice, about 5 minutes and 6 hours after infection, read-out: ED50 (median effective dose)
Experimental: as §3, §4, §5
Pseudomonas aeruginosa No. 12;
as §6, §7, §8
Pseudomonas aeruginosa No. 12
as §9

20 strains of bacteria = assay: In vitro antibacterial activity, overall conclusions; format: cell-based; conditions: in vitro, Table I
Source text: as §1

[19] = Pseudomonas aeruginosa Tsuchijima
[20] = Pseudomonas aeruginosa, NO.12, read-out: minimum inhibitory concentration (MIC)
[21] = Proteus mirabilis, P2381, read-out: minimum inhibitory concentration (MIC)
[22] = Klebsiella pneumoniae, NO.13, read-out: minimum inhibitory concentration (MIC)
[23] = P2473, read-out: minimum inhibitory concentration (MIC)
[24] = Escherichia coli, NIHJJC2, read-out: minimum inhibitory concentration (MIC)
[25] = Serratia, IFO3736, read-out: minimum inhibitory concentration (MIC)
[26] = Staphylococcus aureus No. 50774, read-out: minimum inhibitory concentration (MIC)
[27] = P2503, read-out: minimum inhibitory concentration (MIC)
[28] = Pseudomonas aeruginosa No.12, read-out: minimum inhibitory concentration (MIC)
[29] = P2381, Proteus mirabilis P-2381, read-out: minimum inhibitory concentration (MIC)
[30] = P5101, Escherichia coli P-5101, read-out: minimum inhibitory concentration (MIC)
[31] = Klebsiella pneumoniae No. 13, read-out: minimum inhibitory concentration (MIC)
[32] = P2473, Streptococcus faecalis P-2473, read-out: minimum inhibitory concentration (MIC)
[33] = NIHJJC2, Escherichia coli NIHJ JC-2, read-out: minimum inhibitory concentration (MIC)
[34] = IFO3736, Serratia mercescens IFO 3736, read-out: minimum inhibitory concentration (MIC)
[35] = P2503, Proteus rettgeri P-2503, read-out: minimum inhibitory concentration (MIC)
[36] = Staphylococcus aureus 209P JC-1

SMILES | MIC [1, 19] | MIC [2, 20] | MIC [3] | MIC (Proteus mirabilis P-2381; [21]) | MIC [5] | MIC (Proteus morganii Kono) | MIC [6] | MIC [7, 22] | MIC [8, 23] | MIC [9, 24] | MIC [10] | MIC [11, 25] | MIC [12, 26] | MIC (Proteus rettgeri P-2503; [27]) | minimum inhibitory concentration (MIC) (Escherichia coli P-140a) | MIC (Shigella flexneri 2a) | MIC [14] | MIC (Escherichia coli P-5101 [4]; [30]) | MIC [13, 36] | MIC ([15]; Streptococcus pyogenes 65A) | further results
CC1(C)S[C@@H]2[C@H](NC(=O)[C@H](NC(=O)c3c[nH]c4nc(N5CCN(C=O)CC5)ncc4c3=O)c3ccccc3)C(=O)N2[C@H]1C(=O)O [Compound B, D-α-[5,8-Dihydro-2-(4-formyl-1-piperazinyl)-5-oxopyrido[2,3-d]pyrimidine-6-carboxamido]-benzylpenicillin sodium salt] | 1.56 µg/mL | 6.25 µg/mL | 12.5 µg/mL | 3.13 µg/mL | 6.25 µg/mL | 3.13 µg/mL | 1.56 µg/mL | 6.25 µg/mL | 6.25 µg/mL | 6.25 µg/mL | 1.56 µg/mL | 12.5 µg/mL | 0.78 µg/mL | 6.25 µg/mL | 12.5 µg/mL | 3.13 µg/mL | 0.78 µg/mL | – | – | – | MIC (Escherichia coli P-5101 [4]; Escherichia coli, P5101, read-out: minimum inhibitory concentration (MIC)): 3.13 µg/mL; MIC ([13]; Staphylococcus aureus, 209P): 0.78 µg/mL; MIC ([15]; Streptococcus pyogenes, 65A): < 0.1 µg/mL; ED50 (Escherichia coli P-5101 [16]): 21 mg/kg; ED50 [17]: 3.4 mg/kg; LD50 at 168 h (in vivo; iv): 2830 mg/kg; LD50 at 168 h (in vivo; sc): < 4000 mg/kg; ED50 [18]: 17.7 mg/kg
O=CN1CCN(c2ncc3c(=O)c(C(=O)O)c[nH]c3n2)CC1 [Compound K, 5,8-Dihydro-2-(4-formyl-1-piperazinyl)-5-oxopyrido[2,3-d]pyrimidine-6-carboxylic acid] | – | – | > 200 µg/mL | – | > 100 µg/mL | – | > 50 µg/mL | – | – | – | > 50 µg/mL | – | – | – | > 200 µg/mL | > 100 µg/mL | > 50 µg/mL | > 100 µg/mL | > 50 µg/mL | > 100 µg/mL | MIC ([1]; Pseudomonas aeruginosa): > 200 µg/mL; MIC [2, 28]: > 200 µg/mL; MIC (Proteus mirabilis P-2381; [29]): > 50 µg/mL; MIC (Proteus morganii Kono; Proteus morganii Kono): > 200 µg/mL; MIC [7, 31]: > 200 µg/mL; MIC [8, 32]: > 50 µg/mL; MIC [9, 33]: > 100 µg/mL; MIC [11, 34]: > 100 µg/mL; MIC ([12]; Staphylococcus aureus, NO.50774, read-out: minimum inhibitory concentration (MIC)): > 50 µg/mL; MIC (Proteus rettgeri P-2503; [35]): > 100 µg/mL; antibacterial activity (in words) (20 strains of bacteria): do not substantially show antibacterial activity
CC(=O)N1CCN(c2ncc3c(=O)c(C(=O)O)c[nH]c3n2)CC1 [Compound L, 5,8-Dihydro-2-(4-acetyl-1-piperazinyl)-5-oxopyrido[2,3-d]pyrimidine-6-carboxylic acid] | > 200 µg/mL | – | > 200 µg/mL | – | > 100 µg/mL | – | > 50 µg/mL | – | – | – | > 50 µg/mL | – | > 50 µg/mL | – | > 200 µg/mL | > 100 µg/mL | > 50 µg/mL | > 100 µg/mL | > 50 µg/mL | > 100 µg/mL | MIC [2, 28]: > 200 µg/mL; MIC (Proteus mirabilis P-2381; [29]): > 50 µg/mL; MIC (Proteus morganii Kono; Proteus morganii Kono): > 200 µg/mL; MIC [7, 31]: > 200 µg/mL; MIC [8, 32]: > 50 µg/mL; MIC [9, 33]: > 100 µg/mL; MIC [11, 34]: > 100 µg/mL; MIC (Proteus rettgeri P-2503; [35]): > 100 µg/mL; antibacterial activity (in words) (20 strains of bacteria): do not substantially show antibacterial activity
CN(C)c1ncc2c(=O)c(C(=O)N[C@@H](C(=O)N[C@@H]3C(=O)N4[C@@H]3SC(C)(C)[C@@H]4C(=O)O)c3ccc(O)cc3)c[nH]c2n1 [Compound E, D-α-(5,8-Dihydro-2-dimethylamino-5-oxopyrido[2,3-d]pyrimidine-6-carboxamido)-p-hydroxybenzylpenicillin] | 1.56 µg/mL (≈ 2.68 µM) | 3.13 µg/mL (≈ 5.38 µM) | 12.5 µg/mL (≈ 21.5 µM) | 3.13 µg/mL (≈ 5.38 µM) | 6.25 µg/mL (≈ 10.7 µM) | 6.25 µg/mL (≈ 10.7 µM) | 0.78 µg/mL (≈ 1.34 µM) | 12.5 µg/mL (≈ 21.5 µM) | 3.13 µg/mL (≈ 5.38 µM) | 6.25 µg/mL (≈ 10.7 µM) | 1.56 µg/mL (≈ 2.68 µM) | 6.25 µg/mL (≈ 10.7 µM) | 0.78 µg/mL (≈ 1.34 µM) | 6.25 µg/mL (≈ 10.7 µM) | 25 µg/mL (≈ 43 µM) | – | 0.78 µg/mL (≈ 1.34 µM) | 1.56 µg/mL (≈ 2.68 µM) | 0.78 µg/mL (≈ 1.34 µM) | 0.025 µg/mL (≈ 0.043 µM) | ED50 (Escherichia coli P-5101 [16]): 11 mg/kg; ED50 [17]: ~10 mg/kg; LD50 at 168 h (in vivo; sc): 1070 mg/kg; selectivity ratio (in vivo; sc): 33; ED50 [18]: 32.4 mg/kg
